Results reported in ChEMBL document CHEMBL1201862, “PubChem BioAssay data set” (2004).
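Assay format: 96-well plates, 48-hour exposure. At the GI50, growth is halved.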 Calls of active or inactive are those of the source. No stated cut-off is given here; in the data, active = GI50 up to about 1.1 µM and inactive = higher.

What was measured:
Test in all cases: NCI anticancer screen, dose series, 48 h
[1] = test system: Malme-3M
[2] = test system: A549
[3] = test system: UO-31
[4] = test system: MOLT-4
[5] = test system: LOX IMVI
[6] = test system: M14
[7] = test system: K562
[8] = test system: UACC-62
[9] = test system: SR
[10] = test system: A498
[11] = test system: MDA-MB-231
[12] = test system: NCI-H460
[13] = test system: IGROV-1
[14] = test system: KM12
[15] = test system: HOP-92
[16] = test system: SN12C
[17] = test system: BT-549
[18] = test system: CCRF-CEM
[19] = test system: EKVX
[20] = test system: U-251

Compound	GI50 [1]	GI50 [2]	GI50 [3]	GI50 [4]	GI50 [5]	GI50 [6]	GI50 [7]	GI50 [8]	GI50 [9]	GI50 [10]	GI50 [11]	GI50 [12]	GI50 [13]	GI50 [14]	GI50 [15]	GI50 [16]	GI50 [17]	GI50 [18]	GI50 [19]	GI50 [20]
CCOC(=O)c1nc2c(nc1C(=O)OCC)C(=O)c1ccccc1C2=O	0.174 µM (active)	0.594 µM (active)	0.333 µM (active)	1.71 µM (inactive)	0.353 µM (active)	0.585 µM (active)	0.348 µM (active)	0.288 µM (active)	0.263 µM (active)	1.87 µM (inactive)	2.16 µM (inactive)	1.59 µM (inactive)	2.75 µM (inactive)	1.45 µM (inactive)	5.36 µM (inactive)	0.201 µM (active)	0.471 µM (active)	0.601 µM (active)	1.38 µM (inactive)	0.703 µM (active)
OC1CC(O)c2c(Cl)sc(Cl)c21 (stereo not drawn)	36.3 µM (inactive)	11.7 µM (inactive)	28.2 µM (inactive)	51.5 µM (inactive)	52.6 µM (inactive)	35.2 µM (inactive)	62.8 µM (inactive)	42.8 µM (inactive)	> 100 µM (inactive)	> 100 µM (inactive)	32.1 µM (inactive)	21.8 µM (inactive)	> 100 µM (inactive)	27 µM (inactive)	23.4 µM (inactive)	46.3 µM (inactive)	34.6 µM (inactive)	46.1 µM (inactive)	5.21 µM (inactive)	15.5 µM (inactive)
NC(Cc1ccccc1)c1nccs1 (stereo not drawn)	> 100 µM (inactive)	> 100 µM (inactive)	> 100 µM (inactive)	> 100 µM (inactive)	> 100 µM (inactive)	> 100 µM (inactive)	> 100 µM (inactive)	> 100 µM (inactive)	> 100 µM (inactive)	> 100 µM (inactive)	> 100 µM (inactive)	–	> 100 µM (inactive)	> 100 µM (inactive)	> 100 µM (inactive)	> 100 µM (inactive)	> 100 µM (inactive)	> 100 µM (inactive)	> 100 µM (inactive)	> 100 µM (inactive)
CCOC(=O)NN(C(=O)OCC)C(=C(C1=CCCCC1)N1CCOCC1)N(NC(=O)OCC)C(=O)OCC	> 100 µM (inactive)	> 100 µM (inactive)	> 100 µM (inactive)	> 100 µM (inactive)	> 100 µM (inactive)	> 100 µM (inactive)	> 100 µM (inactive)	> 100 µM (inactive)	> 100 µM (inactive)	> 100 µM (inactive)	> 100 µM (inactive)	> 100 µM (inactive)	> 100 µM (inactive)	> 100 µM (inactive)	> 100 µM (inactive)	> 100 µM (inactive)	> 100 µM (inactive)	–	> 100 µM (inactive)	> 100 µM (inactive)
